In ChEMBL document CHEMBL3045592, “Studies of O,O-dimethyl α-(2,4-dichlorophenoxyacetoxy)ethylphosphonate (HW02) as a new herbicide. 1. Synthesis and herbicidal activity of HW02 and analogues as novel inhibitors of pyruvate dehydrogenase complex” (J Agric Food Chem, 2011):

Assays:
Assay type in all cases: functional
Echinochloa crus-galli [1] = test: Pre-emergence herbicidal activity against Echinochloa crus-galli (barnyard grass) assessed as growth inhibition at 1500 ai g/ha after 20 days by green house test
Amaranthus retroflexus [2] = test: Post-emergence herbicidal activity against Amaranthus retroflexus assessed as growth inhibition at 1500 ai g/ha after 20 days by green house test
Digitaria sanguinalis [3] = test: Pre-emergence herbicidal activity against Digitaria sanguinalis (hairy crabgrass) assessed as growth inhibition at 1500 ai g/ha after 20 days by green house test
Medicago sativa [4] = test: Post-emergence herbicidal activity against Medicago sativa (alfalfa) assessed as growth inhibition at 1500 ai g/ha after 20 days by green house test
Medicago sativa [5] = test: Pre-emergence herbicidal activity against Medicago sativa (alfalfa) assessed as growth inhibition at 1500 ai g/ha after 20 days by green house test
[6] = system: Brassica rapa subsp. oleifera; test: Post-emergence herbicidal activity against Brassica rapa subsp. oleifera Si Yue Man assessed as growth inhibition at 1500 ai g/ha after 20 days by green house test
Echinochloa crus-galli [7] = test: Post-emergence herbicidal activity against Echinochloa crus-galli (barnyard grass) assessed as growth inhibition at 1500 ai g/ha after 20 days by green house test
Digitaria sanguinalis [8] = test: Post-emergence herbicidal activity against Digitaria sanguinalis (hairy crabgrass) assessed as growth inhibition at 1500 ai g/ha after 20 days by green house test
[9] = system: Brassica rapa subsp. oleifera; test: Pre-emergence herbicidal activity against Brassica rapa subsp. oleifera Si Yue Man assessed as growth inhibition at 1500 ai g/ha after 20 days by green house test
Amaranthus retroflexus [10] = test: Pre-emergence herbicidal activity against Amaranthus retroflexus assessed as growth inhibition at 1500 ai g/ha after 20 days by green house test

Measured: growth inhibition (GI)

COP(=O)(OC)C(OC(=O)COc1cc(C)ccc1Cl)c1cccc([N+](=O)[O-])c1 (stereo not given)
<=50%: all assays above

COP(=O)(OC)C(OC(=O)COc1ccc(Cl)cc1)c1cccc([N+](=O)[O-])c1 (stereo not given)
75%: Amaranthus retroflexus [2] | Medicago sativa [4] | [6] | Echinochloa crus-galli [7]
50%: Digitaria sanguinalis [8]
90%: all other assays above

COP(=O)(OC)C(OC(=O)COc1ccccc1[N+](=O)[O-])c1cccc([N+](=O)[O-])c1 (stereo not given)
<=50%: all assays above

COP(=O)(OC)C(OC(=O)COc1cccc(Cl)c1Cl)c1cccc([N+](=O)[O-])c1 (stereo not given)
<=50%: all assays above

COP(=O)(OC)C(OC(=O)COc1ccc(Cl)cc1)c1ccccc1O (stereo not given)
50%: Digitaria sanguinalis [3]
75%: Amaranthus retroflexus [2] | Medicago sativa [4] | [6]
90%: Medicago sativa [5]
<=50%: all other assays above

COP(=O)(OC)C(OC(=O)COc1ccc(F)c(Cl)c1)C(Cl)(Cl)Cl (stereo not given)
90%: Amaranthus retroflexus [2]
75%: Digitaria sanguinalis [3] | [6]
<=50%: Digitaria sanguinalis [8] | [9]
50%: all other assays above

COP(=O)(OC)C(C)OC(=O)COc1ccc(Br)cc1Br (stereo not given)
90%: Amaranthus retroflexus [2] | Medicago sativa [4] | [6]
75%: Medicago sativa [5]
<=50%: all other assays above

COP(=O)(OC)C(C)OC(=O)COc1cc(C)ccc1Cl (stereo not given)
50%: Digitaria sanguinalis [8]
<=50%: all other assays above

COP(=O)(OC)C(OC(=O)COc1ccc(Cl)c(C)c1)c1cccc([N+](=O)[O-])c1 (stereo not given)
<=50%: Echinochloa crus-galli [1] | [6] | Echinochloa crus-galli [7] | Digitaria sanguinalis [8]
50%: Digitaria sanguinalis [3] | [9]
75%: all other assays above

COP(=O)(OC)C(OC(=O)COc1ccc(F)c(Cl)c1)c1cccc([N+](=O)[O-])c1 (stereo not given)
75%: Amaranthus retroflexus [2] | Digitaria sanguinalis [8]
<=50%: Digitaria sanguinalis [3] | [9]
50%: all other assays above

COP(=O)(OC)C(OC(=O)COc1ccc(C(F)(F)F)cc1)c1ccccc1 (stereo not given)
<=50%: all assays above

COP(=O)(OC)C(OC(=O)COc1ccc(Cl)cc1Cl)c1cccc(Br)c1 (stereo not given)
<=50%: Digitaria sanguinalis [8]
50%: Echinochloa crus-galli [1] | Echinochloa crus-galli [7]
90%: all other assays above

COP(=O)(OC)C(C)OC(=O)COc1ccc(F)cc1F (stereo not given)
50%: Medicago sativa [4] | Medicago sativa [5] | Digitaria sanguinalis [8]
75%: Amaranthus retroflexus [2] | Digitaria sanguinalis [3] | [6]
<=50%: all other assays above

COP(=O)(OC)C(C)OC(=O)COc1ccc(Cl)c(C)c1 (stereo not given)
90%: [9]
<=50%: Echinochloa crus-galli [7] | Digitaria sanguinalis [8]
50%: Amaranthus retroflexus [2] | Medicago sativa [4] | [6]
75%: all other assays above

COP(=O)(OC)C(OC(=O)COc1ccc(C)cc1)c1ccccc1 (stereo not given)
75%: Medicago sativa [5] | [9] | Amaranthus retroflexus [10]
50%: Amaranthus retroflexus [2] | Medicago sativa [4] | [6]
<=50%: all other assays above

COP(=O)(OC)C(C)OC(=O)COc1ccc(Cl)cc1 (stereo not given)
75%: [6]
50%: Medicago sativa [4]
<=50%: Echinochloa crus-galli [7] | Digitaria sanguinalis [8]
90%: all other assays above

COP(=O)(OC)C(OC(=O)COc1cccc(C)c1)c1ccccc1 (stereo not given)
50%: Amaranthus retroflexus [2] | Medicago sativa [4] | [6]
75%: Medicago sativa [5] | [9] | Amaranthus retroflexus [10]
<=50%: all other assays above

COP(=O)(OC)C(OC(=O)COc1ccc([N+](=O)[O-])cc1)c1cccc([N+](=O)[O-])c1 (stereo not given)
<=50%: all assays above

COP(=O)(COC(=O)COc1ccc(C(F)(F)F)cc1)OC
75%: Amaranthus retroflexus [2]
<=50%: all other assays above

COP(=O)(OC)C(C)OC(=O)COc1ccccc1F (stereo not given)
<=50%: all assays above

COP(=O)(OC)C(C)OC(=O)COc1ccc(F)c(Cl)c1 (stereo not given)
50%: Echinochloa crus-galli [1] | Digitaria sanguinalis [3]
<=50%: Echinochloa crus-galli [7] | Digitaria sanguinalis [8] | [9] | Amaranthus retroflexus [10]
75%: all other assays above
